Measurements published in US7205417B2, “Spiro compounds” (Banyu Pharmaceutical Co., Ltd., priority 2001, dated 2007).

Target: T1, human NPY Y5 receptor (Homo sapiens, UniProt Q15761)
T1 construct: expressed in transfected cells; host or cells: COS-7, CHO and LM(tk-) cells; vectors pcDNA3, pRc/RSV, pCI-neo; membrane preparation
T1 sequence (Q15761 1-445): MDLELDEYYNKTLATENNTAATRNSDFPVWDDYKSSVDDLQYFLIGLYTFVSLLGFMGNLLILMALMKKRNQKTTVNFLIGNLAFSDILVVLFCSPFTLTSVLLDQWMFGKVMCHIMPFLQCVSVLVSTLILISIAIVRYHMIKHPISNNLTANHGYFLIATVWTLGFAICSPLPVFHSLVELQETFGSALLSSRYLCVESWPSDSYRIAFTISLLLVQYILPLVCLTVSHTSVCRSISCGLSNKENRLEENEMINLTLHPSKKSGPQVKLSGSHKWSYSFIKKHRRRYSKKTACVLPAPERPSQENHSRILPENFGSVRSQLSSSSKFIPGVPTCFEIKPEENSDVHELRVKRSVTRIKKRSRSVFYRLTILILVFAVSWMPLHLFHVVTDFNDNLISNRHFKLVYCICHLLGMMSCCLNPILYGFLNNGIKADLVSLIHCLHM
Experiment: NPY binding inhibition test
Settings: [125I]peptideYY binding to membrane sample from cells expressing NPY Y5 receptor, 25° C., 2 hours; read-out: NPY receptors binding inhibition IC50
Text: Pharmacological Test (NPY Binding Inhibition Test)
A sequence coding for human NPY Y5 receptor (c.f. International patent publication number W096/16542) was cloned into expression vectors pcDNA3, pRc/RSV (made by Invitrogen Inc.) and pCI-neo (made by Promega Inc.). The expression vectors thus obtained were transfected to host cells COS-7, CHO and LM(tk-) (American Type Culture Collection) by cationic lipid method (Proceedings of the National Academy of Sciences of the United States of America, vol. 84: p. 7413(1987)) to give NPY Y5 receptor expression cells.
A membrane sample prepared from the cells which expressed NPY Y5 receptor was incubated together with a test compound and [^125I]peptideYY (made by NEN) (20,000 cpm) in an assay buffer (25 mM Tris buffer, pH 7.4, containing 10 mM magnesium chloride, 1 mM phenylmethylsulfonyl fluoride, 0.1% bacitracin and 0.5% bovine serum albumin) at 25° C. for 2 hours, then filtered through a glass filter GF/C and washed with 5 mM Tris buffer (pH7.4) containing 0.3% BSA. The radioactivity of the cake on the glass filter was measured. Non-specific binding was measured in the presence of 1 μM peptide YY, and 50% Inhibitory Concentration (IC50) of the test compound against specific peptideYY binding was determined (Endocrinology, vol. 131: p. 2090(1992)).

IC50 | SMILES
2.5 nM | O=C1OC2(CCC(C(=O)NC3CCC(c4ccccc4)CC3)CC2)c2ccccc21 (stereo not drawn) [Example 1, trans-3′-oxo-N-(trans-4-phenylcyclohexyl)-spiro[cyclohexane-1,1′(3′H)-isobenzofuran]-4-carboxamide]
1.7 nM | O=C1OC2(CCC(C(=O)NC3CCN(c4ccccc4F)CC3)CC2)c2ccccc21 (stereo not drawn) [Example 5, Trans-N-[1-(2-fluorophenyl)-4-piperidyl]-3′-oxo-spiro[cyclohexane-1,1′(3′H)-isobenzofuran]-4-carboxamide]
3.6 nM | O=C1OC2(CCC(C(=O)NC3CCC(c4cccc(F)c4)CC3)CC2)c2ncccc21 (stereo not drawn) [Example 27, Trans-N-[trans-4-(3-fluorophenyl)cyclohexyl]-3-oxospiro[7-azaisobenzofuran-1(3H),1′-cyclohexane]-4′-carboxamide]
1.7 nM | O=C1OC2(CCC(C(=O)NC(CNCc3ccccc3)Cc3ccccc3)CC2)c2ccccc21 (centres unmarked) [Example 32]
0.8 nM | CS(=O)(=O)N1CC2(CCC(C(=O)NC3CCN(c4cccc(F)c4)CC3)CC2)c2ccccc21 (stereo not drawn) [Example 36, Trans-N-[1-(3-fluorophenyl)-4-piperidyl]-1-methanesulfonyl-spiro[indoline-3,1′-cyclohexane]-4′-carboxamide]
1.2 nM | CS(=O)(=O)N1CC2(CCC(C(=O)NC3CCN(c4ccccc4)C3)CC2)c2ccccc21 [Example 41, Trans-1-methanesulfonyl-N-[(3S)-1-phenyl-3-pyrrolidinyl]spiro[indoline-3,1′-cyclohexane]-4′-carboxamide]
0.69 nM | CS(=O)(=O)N1CC2(CCC(C(=O)NC(CNCc3ccccc3)Cc3ccccc3)CC2)c2ccccc21 [Example 45, Trans-N-[(S)-1-benzyl-2-(benzylamino)ethyl]-1-methylsulfonylspiro[indoline-3,1′-cyclohexane]-4′-carboxamide]
2 nM | CS(=O)(=O)N1CC2(CCC(C(=O)NC(Cc3ccncc3)C(=O)NCc3ccccc3)CC2)c2ccccc21 (stereo not drawn) [Example 46, Trans-N-[1-benzylcarbamoyl-2-(4-pyridyl)ethyl]-1-methylsulfonylspiro[indoline-3,1′-cyclohexane]-4′-carboxamide]
